The assay relates to Swiss mice, Sarcoma 180 sc, mean tumor weight T/C. Description: NCI In Vivo Anticancer Drug Screen. Data for tumor model Sarcoma 180 (subcutaneous) in Swiss mice. The conditions noted are these: endpoint: mean tumor weight, higher = larger tumour. In outline: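 Readout is the ratio of treated-group measurement to vehicle-control measurement (T/C), based on survival or tumor size in mice carrying transplanted tumors.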

The structures appear in SMILES notation. Where “and” joins values, the source holds several entries; their conditions need not be identical. Identical values can stand only once.

As to `COCCOC1=C(N2CC2)C(=O)C(OCCOC)=C(N2CC2)C1=O`, the T/C (in general, the result in the treated group divided by that in the control group, in per cent) reads like this: (dose: 0.89 mg/kg/injection, schedule: Q01DX007 (sc), vehicle: saline) 61 % of control; (dose: 1.3 mg/kg/injection, schedule: Q01DX007 (sc), vehicle: saline) 72 % of control; (dose: 1.6 mg/kg/injection, schedule: Q01DX007 (oral), vehicle: saline) 95 % of control; (dose: 2.0 mg/kg/injection, schedule: Q01DX001 (ip), vehicle: saline) 97 % of control; (dose: 2.0 mg/kg/injection, schedule: Q01DX006 (iv), vehicle: saline) 71 % of control; (dose: 2.0 mg/kg/injection, schedule: Q01DX007 (im), vehicle: saline) 59 % of control. Besides, the T/C runs as follows: (dose: 2.0 mg/kg/injection, schedule: Q01DX007 (ip), vehicle: saline) 56 % of control; (dose: 2.0 mg/kg/injection, schedule: Q01DX007 (sc), vehicle: saline) 45 % of control; (dose: 2.0 mg/kg/injection, schedule: Q03DX003 (ip), vehicle: saline) 64 % of control; (dose: 2.4 mg/kg/injection, schedule: Q01DX007 (oral), vehicle: saline) 75 % of control; (dose: 3.0 mg/kg/injection, schedule: Q01DX001 (ip), vehicle: saline) 48 % of control; (dose: 3.0 mg/kg/injection, schedule: Q01DX006 (iv), vehicle: saline) 48 % of control. For the same compound, the T/C is, setting by setting: (dose: 3.0 mg/kg/injection, schedule: Q01DX007 (im), vehicle: saline) 59 % of control; (dose: 3.0 mg/kg/injection, schedule: Q01DX007 (ip), vehicle: saline) 37 % of control; (dose: 3.0 mg/kg/injection, schedule: Q01DX007 (sc), vehicle: saline) 30 % of control; (dose: 3.0 mg/kg/injection, schedule: Q03DX003 (ip), vehicle: saline) 50 % of control; (dose: 3.6 mg/kg/injection, schedule: Q01DX007 (oral), vehicle: saline) 73 % of control; (dose: 4.0 mg/kg/injection, schedule: Q01DX006 (iv), vehicle: saline) 21 % of control. For the same compound, the T/C is 51 % of control (dose: 4.0 mg/kg/injection, schedule: Q03DX003 (ip), vehicle: saline); 38 % of control (dose: 5.3 mg/kg/injection, schedule: Q01DX007 (oral), vehicle: saline); 83 % of control (dose: 6.0 mg/kg/injection, schedule: Q01DX001 (ip), vehicle: saline); 33 % of control (dose: 6.0 mg/kg/injection, schedule: Q03DX003 (ip), vehicle: saline); 34 % of control (dose: 8.0 mg/kg/injection, schedule: Q01DX007 (oral), vehicle: saline); 32 % of control (dose: 12.0 mg/kg/injection, schedule: Q01DX001 (ip), vehicle: saline).
On to `N#[N+]c1nc2ncnc(N)c2[nH]1`, for which the T/C is, setting by setting: (dose: 6.25 mg/kg/injection, schedule: Q#A X014 (ip), vehicle: saline) 66 % of control; (dose: 12.5 mg/kg/injection, schedule: Q#A X014 (ip), vehicle: saline) 65 % of control; (dose: 25.0 mg/kg/injection, schedule: Q#A X014 (ip), vehicle: saline) 86 % of control.
With `O=C(Nc1ccc(C2=NCCCN2)cc1)c1ccc(NC(=O)c2ccc(C3=NCCCN3)cc2)cc1`, the T/C is 78 % of control (dose: 8.0 mg/kg/injection, schedule: Q01DX007 (ip), vehicle: carboxymethylcellulose (CMC)) and 73 % of control (dose: 16.0 mg/kg/injection, schedule: Q01DX007 (ip), vehicle: carboxymethylcellulose (CMC)).
As for `[Cu+2].[O-]c1ccc(Br)c2cccnc12.[O-]c1ccc(Br)c2cccnc12`, the T/C is 71 % of control (dose: 4.2 mg/kg/injection, schedule: Q01DX007 (ip), vehicle: carboxymethylcellulose (CMC)); 66 % of control (dose: 6.2 mg/kg/injection, schedule: Q01DX007 (ip), vehicle: carboxymethylcellulose (CMC)); 63 % of control (dose: 14.0 mg/kg/injection, schedule: Q01DX007 (ip), vehicle: other); 39 % of control (dose: 21.0 mg/kg/injection, schedule: Q01DX007 (ip), vehicle: other); 26 % of control (dose: 32.0 mg/kg/injection, schedule: Q01DX007 (ip), vehicle: other).
With `OCCOCC(F)(F)F`, the T/C is 100 % of control (dose: 125.0 mg/kg/injection, schedule: Q01DX007 (ip), vehicle: saline); 101 % of control (dose: 250.0 mg/kg/injection, schedule: Q01DX007 (ip), vehicle: saline); 63 % of control (dose: 500.0 mg/kg/injection, schedule: Q01DX007 (ip), vehicle: saline).
Take `Cn1cnc([N+](=O)[O-])c1Sc1nc(N)nc2nc[nH]c12`: the T/C (dose: 1.35 mg/kg/injection, schedule: Q#A X014 (ip), vehicle: methylcellulose (MC)) is 95 % of control; the T/C (dose: 3.0 mg/kg/injection, schedule: Q#A X014 (ip), vehicle: methylcellulose (MC)) was 31 % of control; the T/C (dose: 5.0 mg/kg/injection, schedule: Q#A X014 (ip), vehicle: methylcellulose (MC)) was 27 % of control; the T/C (dose: 5.15 mg/kg/injection, schedule: Q#A X014 (ip), vehicle: methylcellulose (MC)) was 29 % of control; the T/C (dose: 7.5 mg/kg/injection, schedule: Q#A X014 (ip), vehicle: methylcellulose (MC)) was 22 % of control; the T/C (dose: 7.75 mg/kg/injection, schedule: Q#A X014 (ip), vehicle: methylcellulose (MC)) is 29 % of control. For the same compound, the T/C (dose: 11.5 mg/kg/injection, schedule: Q#A X014 (ip), vehicle: methylcellulose (MC)) is 3 % of control.
Take `CC1CN1C(=O)Nc1cccc2c(NC(=O)N3CC3C)cccc12` (centres undefined): the T/C runs as follows: (dose: 9.5 mg/kg/injection, schedule: Q#A X014 (ip), vehicle: methylcellulose (MC)) 66 % of control; (dose: 14.0 mg/kg/injection, schedule: Q#A X014 (ip), vehicle: methylcellulose (MC)) 62 % of control; (dose: 20.5 mg/kg/injection, schedule: Q#A X014 (ip), vehicle: methylcellulose (MC)) 31 % of control; (dose: 21.0 mg/kg/injection, schedule: Q#A X014 (ip), vehicle: methylcellulose (MC)) 35 % of control; (dose: 31.5 mg/kg/injection, schedule: Q#A X014 (ip), vehicle: methylcellulose (MC)) 23 % of control; (dose: 35.0 mg/kg/injection, schedule: Q01DX007 (ip), vehicle: carboxymethylcellulose (CMC)) 50 % of control. Also, the T/C is, setting by setting: (dose: 35.0 mg/kg/injection, schedule: Q01DX007 (ip), vehicle: saline) 53 % of control; (dose: 47.0 mg/kg/injection, schedule: Q#A X014 (ip), vehicle: methylcellulose (MC)) 7 % of control; (dose: 53.0 mg/kg/injection, schedule: Q01DX007 (ip), vehicle: saline) 46 % of control; (dose: 80.0 mg/kg/injection, schedule: Q01DX007 (ip), vehicle: saline) 35 % of control.
Consider `COc1ccc2c3c(c4cc(OC)c(OC)cc4c2c1)C[C@H]1CCCCN1C3`, for which the T/C was 82 % of control (dose: 0.5 mg/kg/injection, schedule: Q01DX007 (ip), vehicle: carboxymethylcellulose (CMC)) and 65 % of control (dose: 1.0 mg/kg/injection, schedule: Q01DX007 (ip), vehicle: carboxymethylcellulose (CMC)).
Take `CCN(CC)c1ccc(/C=C/c2ccnc3ccccc23)cc1`: the T/C was 77 % of control (dose: 1.94 mg/kg/injection, schedule: Q01DX007 (ip), vehicle: carboxymethylcellulose (CMC)); 66 % of control (dose: 3.88 mg/kg/injection, schedule: Q01DX007 (ip), vehicle: carboxymethylcellulose (CMC)); 63 % of control (dose: 6.2 mg/kg/injection, schedule: Q01DX007 (ip), vehicle: other); 96 % of control (dose: 7.5 mg/kg/injection, schedule: Q01DX007 (ip), vehicle: other); 40 % of control (dose: 7.75 mg/kg/injection, schedule: Q01DX007 (ip), vehicle: carboxymethylcellulose (CMC)); 58 % of control (dose: 7.75 mg/kg/injection, schedule: Q01DX007 (ip), vehicle: other). Moreover, the T/C runs as follows: (dose: 10.0 mg/kg/injection, schedule: Q01DX007 (ip), vehicle: other) 107 % of control; (dose: 10.33 mg/kg/injection, schedule: Q01DX007 (ip), vehicle: other) 72 % of control; (dose: 12.0 mg/kg/injection, schedule: Q01DX007 (ip), vehicle: other) 110 % of control; (dose: 12.31 mg/kg/injection, schedule: Q01DX007 (ip), vehicle: carboxymethylcellulose (CMC)) 93 % of control and 110 % of control; (dose: 15.5 mg/kg/injection, schedule: Q01DX007 (ip), vehicle: other) 90 % of control; (dose: 24.62 mg/kg/injection, schedule: Q01DX007 (ip), vehicle: carboxymethylcellulose (CMC)) 59 % of control and 70 % of control. Moreover, the T/C (dose: 49.25 mg/kg/injection, schedule: Q01DX007 (ip), vehicle: carboxymethylcellulose (CMC)) is 53 % of control.

For the origin of these results see PubChem BioAssay AID342 (DTP/NCI, 2004).
